ChEMBL document CHEMBL1772936, “Synthesis and biological activity of novel N6-substituted and 2,N6-disubstituted adenine ribo- and 3'-C-methyl-ribonucleosides as antitumor agents” (Eur J Med Chem, 2011)
pIC50: −log10 of the molar value.

Tests used:
Caco-2 = assay: Antiproliferative activity against human Caco2 cells after 72 hrs by MTS assay; type: functional; conditions: Caco-2, 72 h
HeLa = assay: Antiproliferative activity against human HeLa cells after 72 hrs by MTS assay; type: functional
MCF7 = assay: Antiproliferative activity against human MCF7 cells after 72 hrs by MTS assay; type: functional; conditions: MCF7, 72 h
HT-29 = assay: Antiproliferative activity against human HT-29 cells after 72 hrs by MTS assay; type: functional; conditions: HT-29, 72 h
K562 [1] = assay: Antiproliferative activity against human K562 cells after 72 hrs by MTS assay; type: functional; conditions: K562, 72 h
[2] = biological target: T1, Ribonucleoside-diphosphate reductase RR1 (Homo sapiens, UniProt P23921+P31350+Q7LG56); assay: (§1) Inhibition of human recombinant ribonucleotide reductase M2/M1 expressed in Escherichia coli BL21 (DE3) after 30 mins by [3H]CDP reduction method
T1 sequence (P23921 whole entry): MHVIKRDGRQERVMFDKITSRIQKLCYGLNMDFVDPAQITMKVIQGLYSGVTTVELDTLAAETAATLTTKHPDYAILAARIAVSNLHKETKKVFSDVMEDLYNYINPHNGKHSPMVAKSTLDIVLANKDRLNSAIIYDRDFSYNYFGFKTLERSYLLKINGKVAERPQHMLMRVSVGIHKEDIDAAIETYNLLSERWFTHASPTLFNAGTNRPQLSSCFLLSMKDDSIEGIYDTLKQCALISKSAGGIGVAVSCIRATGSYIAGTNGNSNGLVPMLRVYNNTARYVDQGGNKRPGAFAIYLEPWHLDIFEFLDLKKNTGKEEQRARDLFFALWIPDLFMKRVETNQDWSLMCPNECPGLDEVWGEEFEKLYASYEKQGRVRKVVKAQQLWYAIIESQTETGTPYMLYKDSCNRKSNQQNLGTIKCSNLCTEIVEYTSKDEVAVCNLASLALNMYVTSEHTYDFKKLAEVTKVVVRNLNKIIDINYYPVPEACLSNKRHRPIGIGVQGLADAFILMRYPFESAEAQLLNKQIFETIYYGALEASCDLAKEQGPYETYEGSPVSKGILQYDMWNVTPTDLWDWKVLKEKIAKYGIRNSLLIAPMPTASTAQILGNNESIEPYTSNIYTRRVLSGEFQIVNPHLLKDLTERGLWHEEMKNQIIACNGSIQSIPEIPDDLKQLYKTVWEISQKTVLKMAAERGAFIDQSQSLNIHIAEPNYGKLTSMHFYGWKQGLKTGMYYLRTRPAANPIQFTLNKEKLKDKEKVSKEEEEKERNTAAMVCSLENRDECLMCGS
T1 sequence (Q7LG56 whole entry): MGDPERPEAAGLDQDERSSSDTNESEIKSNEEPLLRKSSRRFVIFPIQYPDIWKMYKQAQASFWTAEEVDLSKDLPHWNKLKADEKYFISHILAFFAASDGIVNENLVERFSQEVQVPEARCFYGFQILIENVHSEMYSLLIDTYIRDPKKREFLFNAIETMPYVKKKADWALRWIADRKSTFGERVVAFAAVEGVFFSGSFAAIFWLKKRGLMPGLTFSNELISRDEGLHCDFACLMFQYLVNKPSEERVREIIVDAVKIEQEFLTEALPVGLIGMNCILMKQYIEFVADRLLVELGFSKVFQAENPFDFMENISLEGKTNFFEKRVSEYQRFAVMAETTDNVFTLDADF
T1 sequence (P31350 whole entry): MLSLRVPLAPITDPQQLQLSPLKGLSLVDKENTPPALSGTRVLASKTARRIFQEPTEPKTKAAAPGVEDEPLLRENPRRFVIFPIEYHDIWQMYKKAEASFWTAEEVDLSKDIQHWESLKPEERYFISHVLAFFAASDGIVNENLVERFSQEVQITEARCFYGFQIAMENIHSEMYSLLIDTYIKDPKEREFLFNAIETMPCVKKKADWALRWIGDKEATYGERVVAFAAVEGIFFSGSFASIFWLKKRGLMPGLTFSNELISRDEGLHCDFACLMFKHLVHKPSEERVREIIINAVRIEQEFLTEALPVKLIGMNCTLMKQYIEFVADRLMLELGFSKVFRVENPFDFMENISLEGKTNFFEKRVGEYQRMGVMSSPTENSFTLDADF

[3] = biological target: T2, Ribonucleoside-diphosphate reductase RR1 (Homo sapiens) (UniProt P23921+Q7LG56+P31350); assay: as §1
[4] = biological target: T1, Ribonucleoside-diphosphate reductase RR1; assay: (§2) Inhibition of human recombinant ribonucleotide reductase p53R2/M1 expressed in Escherichia coli BL21 (DE3) after 30 mins by [3H]CDP reduction method
[5] = biological target: T2, Ribonucleoside-diphosphate reductase RR1 (Homo sapiens); assay: as §2
K562 [6] = assay: Antiproliferative activity against doxorubicin-sensitive human K562 cells after 72 hrs by MTS assay; type: functional; conditions: K562, 72 h, read-out: GI100

Row | GI50 (Caco-2) | GI50 (HeLa) | GI50 (MCF7) | GI50 (HT-29) | GI50 (K562 [1]) | pIC50 [2] | inhibition [3] | pIC50 [4] | inhibition [5] | SMILES | TGI (Caco-2; read-out: GI100) | TGI (K562 [6]) | TGI (HeLa; read-out: GI100) | TGI (MCF7; read-out: GI100) | TGI (HT-29; read-out: GI100)
1 | > 100 µM | 16 µM | 7.9 µM | 18 µM | 12 µM |  |  |  |  | NNc1ncnc2c1ncn2[C@H]1C[C@H](O)[C@@H](CO)O1 |  |  |  |  | 
2 | > 100 µM | > 100 µM | 58 µM | > 100 µM | 49 µM |  |  |  |  | CO/N=c1/[nH]c(N)nc2c1ncn2[C@@H]1O[C@H](CO)[C@@H](O)[C@H]1O |  |  |  |  | 
3 | > 100 µM | > 100 µM | > 100 µM | > 100 µM | 94 µM |  |  |  |  | C[C@@]1(O)[C@@H](CO)O[C@@H](n2cnc3c(NO)nc(N)nc32)[C@@H]1O |  |  |  |  | 
4 | > 100 µM | > 100 µM | > 100 µM | > 100 µM | > 100 µM |  |  |  |  | C[C@@]1(O)[C@@H](CO)O[C@@H](n2cnc3c(NN)ncnc32)[C@@H]1O |  |  |  |  | 
5 | > 100 µM | > 100 µM | > 100 µM | > 100 µM | 99 µM |  |  |  |  | Nc1nc2c(ncn2[C@@H]2O[C@H](CO)[C@@H](O)[C@H]2O)/c(=N\O)[nH]1 |  |  |  |  | 
6 | > 100 µM | 86 µM | 86.2 µM | 86.2 µM | 87.1 µM |  |  |  |  | NNc1nc(Cl)nc2c1ncn2[C@@H]1O[C@H](CO)[C@@H](O)[C@H]1O |  |  |  |  | 
7 | 18.8 µM | 7.9 µM | 20.7 µM | 61.4 µM | 30.7 µM |  |  |  |  | NNc1nc(NN)c2ncn([C@@H]3O[C@H](CO)[C@@H](O)[C@H]3O)c2n1 |  |  |  |  | 
8 | 1.03 µM | 0.52 µM | 0.35 µM | 1.44 µM | 0.61 µM | 3.63 | Dose-dependent effect | 3.61 | Dose-dependent effect | NNc1ncnc2c1ncn2[C@@H]1O[C@H](CO)[C@@H](O)[C@H]1O | 5 µM | 2 µM | 5 µM | 6.1 µM | 8.2 µM
9 | > 100 µM | > 100 µM | > 100 µM | > 100 µM | > 100 µM |  |  |  |  | CO/N=c1/[nH]cnc2c1ncn2[C@@H]1O[C@H](CO)[C@@H](O)[C@H]1O |  |  |  |  | 
10 | 24.3 µM | 23.3 µM | 22.4 µM | 26.1 µM | 9.4 µM |  |  |  |  | C[C@@]1(O)[C@@H](CO)O[C@@H](n2cnc3c(N)ncnc32)[C@@H]1O |  |  |  |  | 
11 | 84.1 µM | > 100 µM | 46.8 µM | > 100 µM | > 100 µM |  |  |  |  | CON(C)c1ncnc2c1ncn2[C@@H]1O[C@H](CO)[C@@H](O)[C@H]1O |  |  |  |  | 
12 | > 100 µM | > 100 µM | > 100 µM | > 100 µM | > 100 µM |  |  |  |  | NNc1nc(N)nc2c1ncn2[C@@H]1O[C@H](CO)[C@@H](O)[C@H]1O |  |  |  |  | 
13 | > 100 µM | > 100 µM | > 100 µM | > 100 µM | > 100 µM |  |  |  |  | CON(C)c1nc(N)nc2c1ncn2[C@@H]1O[C@H](CO)[C@@](C)(O)[C@H]1O |  |  |  |  | 
14 | > 100 µM | > 100 µM | > 100 µM | > 100 µM | > 100 µM |  |  |  |  | C[C@@]1(O)[C@@H](CO)O[C@@H](n2cnc3c(NO)ncnc32)[C@@H]1O |  |  |  |  | 
15 | > 100 µM | > 100 µM | > 100 µM | > 100 µM | 91 µM |  |  |  |  | C[C@@]1(O)[C@@H](CO)O[C@@H](n2cnc3c(NN)nc(N)nc32)[C@@H]1O |  |  |  |  | 
16 | > 100 µM | > 100 µM | > 100 µM | > 100 µM | > 100 µM |  |  |  |  | CONc1nc(N)nc2c1ncn2[C@@H]1O[C@H](CO)[C@@](C)(O)[C@H]1O |  |  |  |  | 
17 | > 100 µM | > 100 µM | > 100 µM | > 100 µM | > 100 µM |  |  |  |  | CON(C)c1ncnc2c1ncn2[C@@H]1O[C@H](CO)[C@@](C)(O)[C@H]1O |  |  |  |  | 
18 | > 100 µM | > 100 µM | > 100 µM | > 100 µM | > 100 µM |  |  |  |  | CONc1ncnc2c1ncn2[C@@H]1O[C@H](CO)[C@@](C)(O)[C@H]1O |  |  |  |  | 
19 | > 100 µM | 3.4 µM | > 100 µM | 15 µM | 31 µM |  |  |  |  | OC[C@H]1O[C@@H](n2cnc3/c(=N\O)[nH]cnc32)[C@H](O)[C@@H]1O |  |  |  |  | 
